The source of these data is paper PMC8426393, “Interactions of anti-COVID-19 drug candidates with hepatic transporters may cause liver toxicity and affect pharmacokinetics” (Scientific Reports, 2021).

The structures appear in SMILES notation. “Also recorded” adds a separate entry of the source. Like-named read-outs stand apart in the source and are kept apart here. Some results are limits rather than exact numbers.

The target in one series is T1, OATP1B1 (Homo sapiens, UniProt Q9Y6L6).
T1 construct: expressed in transfected cells; host or cells: A431 cells (ATCC)
T1 sequence (Q9Y6L6 1-691): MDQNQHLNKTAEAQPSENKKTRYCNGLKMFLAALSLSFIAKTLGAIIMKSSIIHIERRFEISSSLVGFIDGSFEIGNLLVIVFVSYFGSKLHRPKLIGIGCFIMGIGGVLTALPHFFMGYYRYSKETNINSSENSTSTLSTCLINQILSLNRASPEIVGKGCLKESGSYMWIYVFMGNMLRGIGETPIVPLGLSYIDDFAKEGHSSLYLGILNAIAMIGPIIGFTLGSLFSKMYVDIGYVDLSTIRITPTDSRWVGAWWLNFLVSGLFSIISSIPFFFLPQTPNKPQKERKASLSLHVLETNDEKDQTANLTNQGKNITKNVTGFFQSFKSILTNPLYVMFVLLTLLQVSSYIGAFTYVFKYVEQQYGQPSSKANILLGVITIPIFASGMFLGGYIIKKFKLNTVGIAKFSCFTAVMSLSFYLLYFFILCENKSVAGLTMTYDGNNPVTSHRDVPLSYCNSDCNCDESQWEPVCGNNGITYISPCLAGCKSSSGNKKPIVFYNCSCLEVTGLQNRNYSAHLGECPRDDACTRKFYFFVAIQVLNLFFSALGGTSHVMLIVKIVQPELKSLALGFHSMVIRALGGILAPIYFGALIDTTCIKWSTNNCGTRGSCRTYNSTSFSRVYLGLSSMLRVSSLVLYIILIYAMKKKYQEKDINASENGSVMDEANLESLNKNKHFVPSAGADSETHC
The series can be described thus: OATP1B1-dependent pyranine uptake in overexpressing A431 cells. Type of series: cell-based. To be noted: for OATP1B1 Type of effect: A431 cells.

For another series, the target named is T2, ABCC3/MRP3 (Homo sapiens, UniProt O15438).
T2 construct: purchased Solvo Biotechnology (Budapest, Hungary); host or cells: HEK-293 cells
T2 sequence (O15438 whole entry): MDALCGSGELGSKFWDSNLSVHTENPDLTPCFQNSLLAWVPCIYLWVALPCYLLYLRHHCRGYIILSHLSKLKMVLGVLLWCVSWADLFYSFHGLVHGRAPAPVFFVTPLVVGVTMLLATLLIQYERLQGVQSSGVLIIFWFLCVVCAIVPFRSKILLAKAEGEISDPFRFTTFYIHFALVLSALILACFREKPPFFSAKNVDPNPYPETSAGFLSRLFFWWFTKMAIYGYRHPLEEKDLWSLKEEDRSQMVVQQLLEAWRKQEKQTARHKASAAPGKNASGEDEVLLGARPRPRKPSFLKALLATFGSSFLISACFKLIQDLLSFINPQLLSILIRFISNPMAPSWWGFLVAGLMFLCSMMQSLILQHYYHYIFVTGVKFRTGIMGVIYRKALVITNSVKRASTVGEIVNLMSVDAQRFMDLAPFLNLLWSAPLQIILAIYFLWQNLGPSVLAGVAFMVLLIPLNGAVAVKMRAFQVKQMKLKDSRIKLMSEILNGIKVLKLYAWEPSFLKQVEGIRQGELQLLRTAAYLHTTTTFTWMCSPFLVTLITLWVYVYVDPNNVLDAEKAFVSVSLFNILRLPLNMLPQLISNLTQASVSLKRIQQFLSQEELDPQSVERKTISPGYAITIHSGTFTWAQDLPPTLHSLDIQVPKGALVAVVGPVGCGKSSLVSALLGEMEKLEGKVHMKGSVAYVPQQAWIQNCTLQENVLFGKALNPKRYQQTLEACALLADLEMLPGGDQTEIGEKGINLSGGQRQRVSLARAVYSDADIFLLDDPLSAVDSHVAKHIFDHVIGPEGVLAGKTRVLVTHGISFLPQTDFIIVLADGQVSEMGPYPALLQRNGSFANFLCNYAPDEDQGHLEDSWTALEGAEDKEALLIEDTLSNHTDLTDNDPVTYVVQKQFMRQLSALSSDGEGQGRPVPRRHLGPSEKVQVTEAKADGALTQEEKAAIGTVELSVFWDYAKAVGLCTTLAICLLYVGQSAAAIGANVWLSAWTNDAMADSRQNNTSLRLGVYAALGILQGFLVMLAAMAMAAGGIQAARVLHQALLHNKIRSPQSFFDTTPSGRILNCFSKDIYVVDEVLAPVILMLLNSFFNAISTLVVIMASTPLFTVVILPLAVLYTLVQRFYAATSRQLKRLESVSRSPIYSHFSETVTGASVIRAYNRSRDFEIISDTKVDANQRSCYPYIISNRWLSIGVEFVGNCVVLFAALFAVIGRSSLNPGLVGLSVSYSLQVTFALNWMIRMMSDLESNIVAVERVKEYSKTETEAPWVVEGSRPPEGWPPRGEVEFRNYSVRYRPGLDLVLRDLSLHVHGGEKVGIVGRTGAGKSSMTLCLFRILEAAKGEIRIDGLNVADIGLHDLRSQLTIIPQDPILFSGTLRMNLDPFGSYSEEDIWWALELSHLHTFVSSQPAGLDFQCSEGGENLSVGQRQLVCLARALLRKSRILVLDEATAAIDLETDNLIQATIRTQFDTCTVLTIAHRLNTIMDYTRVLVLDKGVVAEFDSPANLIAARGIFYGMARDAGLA
Nature of the series: MRP3 vesicular transport: ATP- and benzbromarone-sensitive CDCF uptake into inverted HEK-293 membrane vesicles. Type of series: biochemical. Conditions: for ABCC3/MRP3 Type of effect: HEK-293 vesicles; for concentration at which MRP3 transport is inhibited: CDCF uptake.

The next series has as its target T3, OATP1B3 (Homo sapiens, UniProt Q9NPD5).
T3 construct: expressed in transfected cells; host or cells: A431 cells (ATCC)
T3 sequence (Q9NPD5 1-702): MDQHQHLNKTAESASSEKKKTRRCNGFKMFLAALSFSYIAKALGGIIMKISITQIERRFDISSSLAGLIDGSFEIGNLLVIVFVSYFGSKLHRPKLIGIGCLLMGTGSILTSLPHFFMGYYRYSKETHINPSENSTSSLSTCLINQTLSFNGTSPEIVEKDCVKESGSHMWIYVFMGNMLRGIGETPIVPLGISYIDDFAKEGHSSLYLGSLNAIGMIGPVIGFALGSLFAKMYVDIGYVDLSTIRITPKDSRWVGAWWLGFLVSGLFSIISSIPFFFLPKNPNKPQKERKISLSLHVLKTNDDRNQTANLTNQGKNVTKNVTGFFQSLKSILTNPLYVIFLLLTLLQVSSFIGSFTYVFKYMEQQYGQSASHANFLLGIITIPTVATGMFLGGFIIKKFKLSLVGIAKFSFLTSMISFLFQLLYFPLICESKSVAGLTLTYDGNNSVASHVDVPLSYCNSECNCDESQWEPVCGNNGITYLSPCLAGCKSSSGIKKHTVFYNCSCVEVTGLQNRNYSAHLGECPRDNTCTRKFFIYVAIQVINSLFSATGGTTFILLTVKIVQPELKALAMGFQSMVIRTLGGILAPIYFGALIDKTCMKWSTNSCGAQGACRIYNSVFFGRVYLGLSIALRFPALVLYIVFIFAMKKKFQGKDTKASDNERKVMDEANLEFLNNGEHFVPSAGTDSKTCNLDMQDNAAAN
The series can be described thus: OATP1B3-dependent pyranine uptake in overexpressing A431 cells. The series is classed as cell-based. To be noted: for OATP1B3 Type of effect: A431 cells.

In another series the target is T4, ABCB11/BSEP (Homo sapiens, UniProt O95342).
T4 construct: purchased Solvo Biotechnology (Budapest, Hungary); host or cells: HEK-293 cells
T4 sequence (O95342 whole entry): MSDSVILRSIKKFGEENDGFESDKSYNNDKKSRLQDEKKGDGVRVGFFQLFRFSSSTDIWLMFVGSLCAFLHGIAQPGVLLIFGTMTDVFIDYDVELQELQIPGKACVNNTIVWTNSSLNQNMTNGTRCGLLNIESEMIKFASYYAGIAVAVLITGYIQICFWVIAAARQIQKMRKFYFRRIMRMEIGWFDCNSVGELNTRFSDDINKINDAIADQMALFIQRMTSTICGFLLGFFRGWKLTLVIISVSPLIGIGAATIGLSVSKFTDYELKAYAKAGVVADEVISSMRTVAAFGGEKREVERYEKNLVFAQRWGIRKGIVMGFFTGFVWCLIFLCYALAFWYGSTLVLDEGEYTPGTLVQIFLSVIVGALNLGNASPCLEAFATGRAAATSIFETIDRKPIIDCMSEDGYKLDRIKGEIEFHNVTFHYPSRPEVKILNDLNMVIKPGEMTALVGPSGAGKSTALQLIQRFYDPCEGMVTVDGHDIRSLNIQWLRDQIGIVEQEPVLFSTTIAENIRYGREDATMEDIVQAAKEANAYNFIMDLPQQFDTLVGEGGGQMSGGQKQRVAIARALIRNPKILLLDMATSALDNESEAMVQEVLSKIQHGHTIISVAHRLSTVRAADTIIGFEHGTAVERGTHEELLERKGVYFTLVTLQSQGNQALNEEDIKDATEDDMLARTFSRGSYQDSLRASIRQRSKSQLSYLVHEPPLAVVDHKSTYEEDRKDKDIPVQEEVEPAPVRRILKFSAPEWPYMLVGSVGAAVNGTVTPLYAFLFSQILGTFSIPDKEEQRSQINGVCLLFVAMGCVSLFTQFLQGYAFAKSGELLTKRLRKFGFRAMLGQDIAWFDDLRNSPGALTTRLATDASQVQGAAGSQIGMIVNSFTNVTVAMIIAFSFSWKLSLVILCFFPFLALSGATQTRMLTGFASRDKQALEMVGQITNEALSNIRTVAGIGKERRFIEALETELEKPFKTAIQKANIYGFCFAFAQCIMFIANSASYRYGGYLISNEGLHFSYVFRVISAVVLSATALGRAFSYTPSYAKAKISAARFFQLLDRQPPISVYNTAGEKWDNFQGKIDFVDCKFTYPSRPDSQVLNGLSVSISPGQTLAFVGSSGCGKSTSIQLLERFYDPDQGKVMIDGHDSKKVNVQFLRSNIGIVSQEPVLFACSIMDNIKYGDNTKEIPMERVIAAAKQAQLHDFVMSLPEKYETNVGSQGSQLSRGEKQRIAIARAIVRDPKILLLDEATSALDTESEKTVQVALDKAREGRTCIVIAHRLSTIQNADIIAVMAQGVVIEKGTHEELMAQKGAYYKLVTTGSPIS
The series can be described thus: BSEP vesicular transport: ATP- and glyburide-sensitive taurocholate uptake into inverted HEK-293 membrane vesicles. The series is classed as biochemical. To be noted: for ABCB11/BSEP Type of effect: HEK-293 vesicles; for concentration at which BSEP inhibition is effective: taurocholate transport.

The target in the next series is T5, ABCC2/MRP2 (Homo sapiens, UniProt Q92887).
T5 construct: made in house; host or cells: Sf9 insect cells (baculovirus)
T5 sequence (Q92887 whole entry): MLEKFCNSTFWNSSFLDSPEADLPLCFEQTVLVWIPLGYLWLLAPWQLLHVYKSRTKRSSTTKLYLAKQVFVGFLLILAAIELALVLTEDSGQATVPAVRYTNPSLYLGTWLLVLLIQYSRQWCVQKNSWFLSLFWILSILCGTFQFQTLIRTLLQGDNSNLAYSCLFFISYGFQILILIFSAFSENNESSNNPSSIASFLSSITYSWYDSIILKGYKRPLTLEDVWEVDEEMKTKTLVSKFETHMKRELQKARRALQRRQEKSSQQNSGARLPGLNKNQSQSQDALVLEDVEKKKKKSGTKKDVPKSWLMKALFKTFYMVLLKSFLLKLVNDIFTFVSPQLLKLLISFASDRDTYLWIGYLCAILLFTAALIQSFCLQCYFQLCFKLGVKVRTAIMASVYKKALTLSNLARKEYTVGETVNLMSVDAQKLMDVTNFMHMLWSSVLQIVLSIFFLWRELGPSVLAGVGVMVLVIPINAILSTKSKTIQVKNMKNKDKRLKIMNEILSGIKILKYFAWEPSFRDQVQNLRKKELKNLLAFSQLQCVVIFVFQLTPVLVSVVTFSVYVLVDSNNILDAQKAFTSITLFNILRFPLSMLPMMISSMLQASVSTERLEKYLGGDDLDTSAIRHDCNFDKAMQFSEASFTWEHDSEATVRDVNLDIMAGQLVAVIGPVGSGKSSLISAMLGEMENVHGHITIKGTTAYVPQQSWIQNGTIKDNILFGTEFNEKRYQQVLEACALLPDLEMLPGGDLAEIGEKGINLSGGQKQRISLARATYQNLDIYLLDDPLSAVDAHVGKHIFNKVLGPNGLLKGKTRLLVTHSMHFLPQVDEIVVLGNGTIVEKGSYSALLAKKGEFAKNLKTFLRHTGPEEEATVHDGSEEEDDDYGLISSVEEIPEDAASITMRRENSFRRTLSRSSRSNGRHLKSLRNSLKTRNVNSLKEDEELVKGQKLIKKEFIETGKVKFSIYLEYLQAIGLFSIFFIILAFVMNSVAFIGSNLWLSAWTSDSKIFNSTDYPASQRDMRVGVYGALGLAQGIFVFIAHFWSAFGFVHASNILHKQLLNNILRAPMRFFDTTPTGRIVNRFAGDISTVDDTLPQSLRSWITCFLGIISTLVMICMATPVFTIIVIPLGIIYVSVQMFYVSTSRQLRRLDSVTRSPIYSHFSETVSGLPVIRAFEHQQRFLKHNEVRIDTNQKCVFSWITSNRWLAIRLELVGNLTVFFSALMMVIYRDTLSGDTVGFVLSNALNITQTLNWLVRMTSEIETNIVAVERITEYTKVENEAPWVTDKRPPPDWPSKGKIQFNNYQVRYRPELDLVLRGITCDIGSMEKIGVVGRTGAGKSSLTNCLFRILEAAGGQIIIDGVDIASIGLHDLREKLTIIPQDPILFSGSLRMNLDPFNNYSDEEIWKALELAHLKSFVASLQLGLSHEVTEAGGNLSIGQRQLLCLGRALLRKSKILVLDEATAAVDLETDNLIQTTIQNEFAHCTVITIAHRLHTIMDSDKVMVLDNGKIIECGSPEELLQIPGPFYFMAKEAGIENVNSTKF
Nature of the series: MRP2 vesicular transport: ATP-dependent CDCF uptake into inverted Sf9 membrane vesicles. Conditions: CDCF 5 µM, 37 °C, 10 min; for ABCC2/MRP2 Type of effect: Sf9 vesicles. Type of series: biochemical.

Another series deals with T6, NTCP/SLC10A1 (Homo sapiens, UniProt Q14973).
T6 construct: expressed in transfected cells; host or cells: HEK-293 cells, lentiviral transduction
T6 sequence (Q14973 1-349): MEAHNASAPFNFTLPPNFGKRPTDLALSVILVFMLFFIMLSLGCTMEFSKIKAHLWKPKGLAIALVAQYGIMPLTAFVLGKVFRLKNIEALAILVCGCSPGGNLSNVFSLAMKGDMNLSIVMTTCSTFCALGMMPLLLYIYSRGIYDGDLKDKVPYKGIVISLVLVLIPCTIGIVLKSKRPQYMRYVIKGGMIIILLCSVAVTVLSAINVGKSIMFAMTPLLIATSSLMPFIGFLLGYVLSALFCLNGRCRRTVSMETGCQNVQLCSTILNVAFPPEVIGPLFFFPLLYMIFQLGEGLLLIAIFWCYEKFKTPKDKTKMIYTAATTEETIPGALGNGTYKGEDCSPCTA
The series can be described thus: NTCP-dependent taurocholate uptake in NTCP-overexpressing HEK-293 cells. The series is classed as cell-based. To be noted: for NTCP/SLC10A1 Type of effect: taurocholate 2 µM, 2 min, 37 °C, HEK-293 cells.

The subject of a further series is ABCG2/BCRP. The arrangement: method as in Telbisz et al., 2021. Conditions: vesicular transporter assay, measured previously; ref Telbisz et al., 2021; cited from earlier work.
Another series deals with ABCB1/Pgp. The arrangement: method as in Telbisz et al., 2021. Conditions: vesicular transporter assay, measured previously; ref Telbisz et al., 2021; cited from earlier work.
[1] abbreviates: taurocholate 2 µM, 37 °C, 10 min.

For `NC(=O)c1nc(F)c[nH]c1=O` [FAV, favipiravir], on OATP1B1 (pyranine 10 µM, 15 min, 37 °C), the “OATP1B1 Type of effect” value is reported as “did not modify OATP functionality”. The “ABCC3/MRP3 Type of effect” value on ABCC3/MRP3 (CDCF 5 µM, 37 °C, 10 min) is reported as “did not influence MRP3 transport at all”. Moreover, the “OATP1B3 Type of effect” value on OATP1B3 (pyranine 20 µM, 30 min, 37 °C) is recorded as “did not modify OATP functionality”. Also, the “ABCB11/BSEP Type of effect” value at ABCB11/BSEP (setting [1]) is reported as “did not modify BSEP-mediated TC transport”. Also, on ABCC2/MRP2, the “ABCC2/MRP2 Type of effect” value is reported as “no such effect”. The “NTCP/SLC10A1 Type of effect” value on NTCP/SLC10A1 is given as “only minor inhibition”.

Consider `CCC(C)C1OC2(CCC1C)CC1CC(CC=C(C)C(OC3CC(OC)C(OC4CC(OC)C(O)C(C)O4)C(C)O3)C(C)C=CC=C3COC4C(O)C(C)=CC(C(=O)O1)C34O)O2` (stereo not shown) [IVE, ivermectin], for which the concentration for half-maximal inhibition (IC50) (commonly the concentration that gives 50% inhibition) against OATP1B1 (approximate IC50, pyranine 10 µM, 15 min, 37 °C) is ≥ 20000 nM; in the series with ABCG2/BCRP it was 1.1 µM; against ABCC3/MRP3 (approximate IC50, CDCF 5 µM, 37 °C, 10 min), > 50 µM; in the series on ABCB1/Pgp, 300 nM; on OATP1B3 (approximate IC50, pyranine 20 µM, 30 min, 37 °C), 1400 nM; at ABCB11/BSEP (approximate IC50, taurocholate 2 µM, 37 °C, 10 min), ≥ 30 µM. In addition, the IC50 against ABCC2/MRP2 (approximate IC50) is ≥ 20 µM. For the same molecule, on OATP1B1 (pyranine 10 µM, 15 min, 37 °C), the “OATP1B1 Type of effect” value was “inh”. Also, the “ABCG2/BCRP type of effect” value in the series with ABCG2/BCRP is “inh”. In addition, the “ABCC3/MRP3 Type of effect” value at ABCC3/MRP3 (CDCF 5 µM, 37 °C, 10 min) is “inh”. For the same molecule, at ABCC3/MRP3, the “concentration at which MRP3 transport is inhibited” value is > 20 µM. Also, the “ABCB1/Pgp Type of effect” value in the series on ABCB1/Pgp was “inh”. Also, the “OATP1B3 R value” on OATP1B3 (DDI estimate, cut off 1.1, 165 µg/kg IVE dose, peak plasma 46 ng/ml) is 1.07. In addition, the “OATP1B3 Type of effect” value at OATP1B3 (pyranine 20 µM, 30 min, 37 °C) is listed as “inh”. In addition, on ABCB11/BSEP (setting [1]), the “ABCB11/BSEP Type of effect” value was “inh”. The “concentration at which BSEP inhibition is effective” value on ABCB11/BSEP is recorded as “above 20 µM”. On ABCC2/MRP2, the “ABCC2/MRP2 Type of effect” value is “strongly decreased the accumulation of the probe substrate and inh”. For the same molecule, the “NTCP/SLC10A1 Type of effect” value at NTCP/SLC10A1 is “only minor inhibition”.

As for `Cc1cccc(C)c1OCC(=O)N[C@@H](Cc1ccccc1)[C@@H](O)C[C@H](Cc1ccccc1)NC(=O)[C@H](C(C)C)N1CCCNC1=O` [LOP, lopinavir], the IC50 was 1100 nM against OATP1B1; 4.2 µM in the series on ABCG2/BCRP; > 40 µM against ABCC3/MRP3; 600 nM with ABCB1/Pgp; 2600 nM at OATP1B3; 7.8 µM against ABCB11/BSEP. For the same molecule, the IC50 on NTCP/SLC10A1 is ≥ 50 µM. In addition, the “ABCG2/BCRP type of effect” value with ABCG2/BCRP is listed as “inh”. On ABCC3/MRP3 (CDCF 5 µM, 37 °C, 10 min), the “ABCC3/MRP3 Type of effect” value was “inh”. The “concentration at which MRP3 transport is inhibited” value on ABCC3/MRP3 is on record as > 20 µM. In addition, the “ABCB1/Pgp Type of effect” value in the series on ABCB1/Pgp is recorded as “inh”. For the same molecule, the “ABCB11/BSEP Type of effect” value at ABCB11/BSEP (setting [1]) was “strongly inhibited TC transport at low concentrations and inh”. At ABCC2/MRP2, the “ABCC2/MRP2 Type of effect” value is “no such effect”. The “NTCP/SLC10A1 Type of effect” value at NTCP/SLC10A1 was “inh”.

With `CCC(CC)COC(=O)[C@H](C)N[P@](=O)(OC[C@H]1O[C@@](C#N)(c2ccc3c(N)ncnn23)[C@H](O)[C@@H]1O)Oc1ccccc1` [REM, remdesivir], the IC50 is 2900 nM against OATP1B1; > 50 µM in the series with ABCG2/BCRP; > 20000 nM in the series with ABCB1/Pgp; 4300 nM against OATP1B3; ≥ 40 µM against ABCB11/BSEP; ≥ 50 µM on NTCP/SLC10A1. On OATP1B1 (pyranine 10 µM, 15 min, 37 °C), the “OATP1B1 Type of effect” value is listed as “inh”. The “ABCG2/BCRP type of effect” value in the series on ABCG2/BCRP is “inh”. For the same molecule, the “ABCC3/MRP3 Type of effect” value at ABCC3/MRP3 (CDCF 5 µM, 37 °C, 10 min) is on record as “did not influence MRP3 transport at all; also recorded: did not inhibit; also recorded: No effect”. For the same molecule, in the series with ABCB1/Pgp, the “ABCB1/Pgp Type of effect” value is given as “inh”. The “OATP1B3 Type of effect” value on OATP1B3 (pyranine 20 µM, 30 min, 37 °C) is reported as “inh”. Moreover, the inhibition (as a rule, the change of the read-out against control, counted positive when it falls) at 10 min, 50 µM against ABCB11/BSEP (human, at 50 µM) was in the range of 40 to 50%. For the same molecule, the “ABCB11/BSEP Type of effect” value at ABCB11/BSEP (setting [1]) was “inh”. Moreover, the “concentration at which BSEP inhibition is effective” value at ABCB11/BSEP is listed as “above 20 µM”. The “ABCC2/MRP2 Type of effect” value on ABCC2/MRP2 is “did not inhibit but rather increased the probe substrate transport at high concentrations; also recorded: Increase”. On NTCP/SLC10A1 (HEK293, read-out: NTCP inhibition), the inhibition at 50 µM lay in the range of 40 to 50%. Besides, at NTCP/SLC10A1, the “NTCP/SLC10A1 Type of effect” value was “inh”.
